Laboratory results reported in patent US10550111B2, “Pyrimidine urea compound containing isoxazolines and use thereof” (SHENYANG SINOCHEM AGROCHEMICALS R&D CO., LTD, priority 2014, dated 2020).

What was measured:
Type in all cases: in vivo
[1] = tested on: Abutilon theophrasti Medic.; assay: Bioassay of herbicidal activity in greenhouse (further screening)
Description: (§1) Determination of herbicidal activity of compounds of the present invention against weeds was carried out by the following procedures:
(§2) Seeds of monocotyledonous and dicotyledonous weeds were sown in nutrition soil in paper pot (7 cm diameter), covered with soil in 1 cm and grown in the greenhouse under good growth conditions (temperature, atmospheric humidity, water supply). The compounds of the present invention as emulsifiable concentrate, were applied in pre-emergence and post-emergence treatment by track sprayer (Engineer Research Ltd., pressure 1.95 kg/cm^2, volume 500 L/hm^2, track speed 1.48 km/h). Pre-emergence treatment was conducted after seeding 24 hours and post-emergence treatment was done when the respective weeds reached predetermined leaf stage (grass weed 2- to 3-leaf stage, broad-leaf weed 2- to 4-leaf stage), the state of growth of the respective weeds were visually observed to determine the growth inhibition rate (%) in accordance with the following evaluation standard.
(§3) Growth inhibition rate (%): 0=no discernible action: 100=all weeds dead or not emerged.

[2] = tested on: Echinochloa crus-galli (L.) Beauv.; assay: as above
Description: as §1, §2, §3

[3] = tested on: Setaria glauca (L.) Beauv.; assay: as above
Description: as §1, §2, §3

Zinnia elegans Jacq. = assay: as above
Description: as §1, §2, §3

[4] = tested on: broad-leaf weeds and grass weeds; assay: General screening of herbicidal activity in greenhouse; details: 1000 g a.i./hm^2;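 note: 0 means no visible effect and 100 means all weeds dead or not emerged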
Description: as §1, §2, §3

## Cn1c(C(F)(F)F)cc(=O)n(-c2cc(C3=NOC(C)(C(=O)O)C3)c(Cl)cc2F)c1=O (centres unmarked) [Compound 4]
[1]; dose 37.5 g a.i./hm^2
  Growth inhibition rate, Post-emergence treatment, Abutilon theophrasti Medic.: 50%
  Growth inhibition rate, Pre-emergence treatment, Abutilon theophrasti Medic.: 10%
[1]; dose 150 g a.i./hm^2
  Growth inhibition rate, Post-emergence treatment, Abutilon theophrasti Medic.: 98%
  Growth inhibition rate, Pre-emergence treatment, Abutilon theophrasti Medic.: 15%
[1]; dose 600 g a.i./hm^2
  Growth inhibition rate, Post-emergence treatment, Abutilon theophrasti Medic.: 98%
  Growth inhibition rate, Pre-emergence treatment, Abutilon theophrasti Medic.: 40%
[2]; dose 37.5 g a.i./hm^2
  Growth inhibition rate, Post-emergence treatment, Echinochloa crus-galli (L.) Beauv.: 15%
  Growth inhibition rate, Pre-emergence treatment, Echinochloa crus-galli (L.) Beauv.: 0%
[2]; dose 150 g a.i./hm^2
  Growth inhibition rate, Post-emergence treatment, Echinochloa crus-galli (L.) Beauv.: 25%
  Growth inhibition rate, Pre-emergence treatment, Echinochloa crus-galli (L.) Beauv.: 0%
[2]; dose 600 g a.i./hm^2
  Growth inhibition rate, Post-emergence treatment, Echinochloa crus-galli (L.) Beauv.: 85%
  Growth inhibition rate, Pre-emergence treatment, Echinochloa crus-galli (L.) Beauv.: 10%
[3]; dose 37.5 g a.i./hm^2
  Growth inhibition rate, Post-emergence treatment, Setaria glauca (L.) Beauv.: 20%
  Growth inhibition rate, Pre-emergence treatment, Setaria glauca (L.) Beauv.: 0%
[3]; dose 150 g a.i./hm^2
  Growth inhibition rate, Post-emergence treatment, Setaria glauca (L.) Beauv.: 70%
  Growth inhibition rate, Pre-emergence treatment, Setaria glauca (L.) Beauv.: 5%
[3]; dose 600 g a.i./hm^2
  Growth inhibition rate, Post-emergence treatment, Setaria glauca (L.) Beauv.: 100%
  Growth inhibition rate, Pre-emergence treatment, Setaria glauca (L.) Beauv.: 30%
Zinnia elegans Jacq.; dose 37.5 g a.i./hm^2
  Growth inhibition rate, Post-emergence treatment, Zinnia elegans Jacq.: 95%
  Growth inhibition rate, Pre-emergence treatment, Zinnia elegans Jacq.: 0%
Zinnia elegans Jacq.; dose 150 g a.i./hm^2
  Growth inhibition rate, Post-emergence treatment, Zinnia elegans Jacq.: 100%
  Growth inhibition rate, Pre-emergence treatment, Zinnia elegans Jacq.: 5%
Zinnia elegans Jacq.; dose 600 g a.i./hm^2
  Growth inhibition rate, Post-emergence treatment, Zinnia elegans Jacq.: 100%
  Growth inhibition rate, Pre-emergence treatment, Zinnia elegans Jacq.: 20%
[4]
  pre-emergence and post-emergence herbicidal activity against broad-leaf weeds and grass weeds: good

## CNC(=O)C1(C)CC(c2cc(-n3c(=O)cc(C(F)(F)F)n(C)c3=O)c(F)cc2Cl)=NO1 (centres unmarked) [Compound 23]
[4]
  pre-emergence and post-emergence herbicidal activity against broad-leaf weeds and grass weeds: good

## CC(C)NC(=O)C1(C)CC(c2cc(-n3c(=O)cc(C(F)(F)F)n(C)c3=O)c(F)cc2Cl)=NO1 (centres unmarked) [Compound 26]
[4]
  pre-emergence and post-emergence herbicidal activity against broad-leaf weeds and grass weeds: good

## COC(=O)C1CCN(C(=O)C2(C)CC(c3cc(-n4c(=O)cc(C(F)(F)F)n(C)c4=O)c(F)cc3Cl)=NO2)CC1 (centres unmarked) [Compound 35]
[4]
  pre-emergence and post-emergence herbicidal activity against broad-leaf weeds and grass weeds: good

## Cn1c(C(F)(F)F)cc(=O)n(-c2cc(C3=NOC(C)(CO)C3)c(Cl)cc2F)c1=O (centres unmarked) [Compound 42]
[4]
  pre-emergence and post-emergence herbicidal activity against broad-leaf weeds and grass weeds: good

## COc1c(Cl)ccc(Cl)c1C(=O)OCC1(C)CC(c2cc(-n3c(=O)cc(C(F)(F)F)n(C)c3=O)c(F)cc2Cl)=NO1 (centres unmarked) [Compound 66]
[4]
  pre-emergence and post-emergence herbicidal activity against broad-leaf weeds and grass weeds: good

## Cn1c(C(F)(F)F)cc(=O)n(-c2cc(C3=NOC(C)(COC(=O)c4cc(Oc5ccc(C(F)(F)F)cc5Cl)ccc4[N+](=O)[O-])C3)c(Cl)cc2F)c1=O (centres unmarked) [Compound 67]
[4]
  pre-emergence and post-emergence herbicidal activity against broad-leaf weeds and grass weeds: good

## CN(C)S(=O)(=O)OCC1(C)CC(c2cc(-n3c(=O)cc(C(F)(F)F)n(C)c3=O)c(F)cc2Cl)=NO1 (centres unmarked) [Compound 96]
[4]
  pre-emergence and post-emergence herbicidal activity against broad-leaf weeds and grass weeds: good

## Cn1c(C(F)(F)F)cc(=O)n(-c2cc(C3=NOC(C)(CBr)C3)c(Cl)cc2F)c1=O (centres unmarked) [Compound 99]
[4]
  pre-emergence and post-emergence herbicidal activity against broad-leaf weeds and grass weeds: good

## Cn1c(C(F)(F)F)cc(=O)n(-c2ccc(Cl)c(C3=NOC(C)(C(=O)O)C3)c2)c1=O (centres unmarked) [Compound 282]
[4]
  pre-emergence and post-emergence herbicidal activity against broad-leaf weeds and grass weeds: good

## Cn1c(C(F)(F)F)cc(=O)n(-c2ccc(Cl)c(C3=NOC(C)(CO)C3)c2)c1=O (centres unmarked) [Compound 320]
[4]
  pre-emergence and post-emergence herbicidal activity against broad-leaf weeds and grass weeds: good

## CC(=O)OCC1(C)CC(c2cc(-n3c(=O)cc(C(F)(F)F)n(C)c3=O)ccc2Cl)=NO1 (centres unmarked) [Compound 321]
[4]
  pre-emergence and post-emergence herbicidal activity against broad-leaf weeds and grass weeds: good

## Cn1c(C(F)(F)F)cc(=O)n(-c2ccc(Cl)c(C3=NOC(C)(COC(=O)C4CC4)C3)c2)c1=O (centres unmarked) [Compound 323]
[4]
  pre-emergence and post-emergence herbicidal activity against broad-leaf weeds and grass weeds: good

## CC(C)C(=O)OCC1(C)CC(c2cc(-n3c(=O)cc(C(F)(F)F)n(C)c3=O)ccc2Cl)=NO1 (centres unmarked) [Compound 324]
[4]
  pre-emergence and post-emergence herbicidal activity against broad-leaf weeds and grass weeds: good

## Cn1c(C(F)(F)F)cc(=O)n(-c2ccc(Cl)c(C3=NOC(C)(COC(=O)CCl)C3)c2)c1=O (centres unmarked) [Compound 328]
[4]
  pre-emergence and post-emergence herbicidal activity against broad-leaf weeds and grass weeds: good

## Cn1c(C(F)(F)F)cc(=O)n(-c2ccc(Cl)c(C3=NOC(C)(COC(=O)CCCl)C3)c2)c1=O (centres unmarked) [Compound 329]
[4]
  pre-emergence and post-emergence herbicidal activity against broad-leaf weeds and grass weeds: good

## CSCCC(=O)OCC1(C)CC(c2cc(-n3c(=O)cc(C(F)(F)F)n(C)c3=O)ccc2Cl)=NO1 (centres unmarked) [Compound 332]
[4]
  pre-emergence and post-emergence herbicidal activity against broad-leaf weeds and grass weeds: good

## Cn1c(C(F)(F)F)cc(=O)n(-c2ccc(Cl)c(C3=NOC(C)(COC(=O)CCc4ccccc4)C3)c2)c1=O (centres unmarked) [Compound 333]
[4]
  pre-emergence and post-emergence herbicidal activity against broad-leaf weeds and grass weeds: good

## Cn1c(C(F)(F)F)cc(=O)n(-c2ccc(Cl)c(C3=NOC(C)(COC(=O)c4cc(Oc5ccc(C(F)(F)F)cc5Cl)ccc4[N+](=O)[O-])C3)c2)c1=O (centres unmarked) [Compound 345]
[4]
  pre-emergence and post-emergence herbicidal activity against broad-leaf weeds and grass weeds: good

## Cn1c(C(F)(F)F)cc(=O)n(-c2ccc(Cl)c(C3=NOC(C)(COS(C)(=O)=O)C3)c2)c1=O (centres unmarked) [Compound 366]
[4]
  pre-emergence and post-emergence herbicidal activity against broad-leaf weeds and grass weeds: good
